# Measurements: article PMC10763615, “Identification and engineering of potent cyclic peptides with selective or promiscuous binding through biochemical profiling and bioinformatic data analysis” (RSC Chemical Biology, 2023)
# Read-outs that look alike come from different tables or passages of the source. Positions of bridges follow the written chain, without caps; N, C: chain ends. Residues, ends and D or L forms follow the SMILES beside them.
# Experiments:
# Assay type in all cases: binding
# FGF-R4 ECD = biological target: T1, FGF-R4 ECD (Homo sapiens, UniProt P22455); experiment: single concentration BLI of crude peptides; conditions: read-out: KD (4)
# T1 construct: DNA constructs for the extracellular domain (ECD) of human FGF-; HPC4 (C); made in house; host or cells: HEK 293-6E
# T1 sequence (P22455 22-369 limits assumed): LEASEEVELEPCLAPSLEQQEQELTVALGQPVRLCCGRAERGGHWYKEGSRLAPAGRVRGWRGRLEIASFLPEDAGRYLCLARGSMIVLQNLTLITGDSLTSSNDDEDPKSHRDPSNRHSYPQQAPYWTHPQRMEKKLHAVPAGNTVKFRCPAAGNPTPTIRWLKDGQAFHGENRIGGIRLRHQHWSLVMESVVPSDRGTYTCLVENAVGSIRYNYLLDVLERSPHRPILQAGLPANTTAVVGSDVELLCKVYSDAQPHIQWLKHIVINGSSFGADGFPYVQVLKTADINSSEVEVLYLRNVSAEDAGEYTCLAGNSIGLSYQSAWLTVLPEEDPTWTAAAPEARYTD
# Method in brief: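 BLI, streptavidin sensors loaded with biotinylated receptor ECD. Single-point: ~1 μM crude peptide, PBS pH7.4/0.05% Tween-20/0.01% BSA; association then dissociation in buffer. KD corrected for UPLC-CAD-determined concentration.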
# FGF-R1C ECD = biological target: T2, FGF-R1C ECD (Homo sapiens, UniProt P11362); experiment: biochemical; design: DNA constructs for the extracellular domain (ECD) of human FGF-; HPC4 (C); made in house; host or cells: HEK 293-6E
# T2 sequence (P11362 22-376 limits assumed): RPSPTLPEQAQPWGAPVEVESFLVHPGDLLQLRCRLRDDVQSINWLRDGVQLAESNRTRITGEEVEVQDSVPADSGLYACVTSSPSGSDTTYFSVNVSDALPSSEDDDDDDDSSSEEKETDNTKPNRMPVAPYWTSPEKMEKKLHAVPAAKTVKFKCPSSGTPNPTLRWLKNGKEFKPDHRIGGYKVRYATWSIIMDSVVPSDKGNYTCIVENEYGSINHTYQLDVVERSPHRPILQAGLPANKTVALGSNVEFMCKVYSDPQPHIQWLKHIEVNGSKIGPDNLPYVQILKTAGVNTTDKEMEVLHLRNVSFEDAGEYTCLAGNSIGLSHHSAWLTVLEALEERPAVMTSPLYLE
# Method in brief: (§1)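 Biotinylated FGF-R ECD on streptavidin biosensors was dipped into ~1 μM crude peptide in PBS pH7.4 with 0.05% Tween-20 and 0.01% BSA for association, then into buffer for dissociation, and followed by BLI. Fitted KD values were adjusted for peptide concentration measured by UPLC-CAD.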
# FGF-R3C ECD = biological target: T3, FGF-R3C ECD (Homo sapiens, UniProt P22607); experiment: biochemical; design: DNA constructs for the extracellular domain (ECD) of human FGF-; HPC4 (C); made in house; host or cells: HEK 293-6E
# T3 sequence (P22607 23-375 limits assumed): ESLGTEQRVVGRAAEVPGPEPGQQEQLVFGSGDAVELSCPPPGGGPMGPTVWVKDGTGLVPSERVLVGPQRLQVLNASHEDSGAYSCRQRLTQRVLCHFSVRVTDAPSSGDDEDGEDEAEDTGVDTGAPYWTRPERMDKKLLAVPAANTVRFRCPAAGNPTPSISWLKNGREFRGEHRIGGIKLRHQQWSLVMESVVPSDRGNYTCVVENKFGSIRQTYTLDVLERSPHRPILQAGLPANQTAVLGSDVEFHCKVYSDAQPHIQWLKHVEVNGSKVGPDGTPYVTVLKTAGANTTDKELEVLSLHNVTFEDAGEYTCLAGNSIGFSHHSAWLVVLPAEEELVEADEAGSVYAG
# Method in brief: as §1
# [1] = crude T18 selection 1 (1:1:1) peptides, single concentration BLI (Table S4)
Structure (SMILES),Kd (FGF-R4 ECD; [1]) [µM],Kd (FGF-R1C ECD) [µM],Kd (FGF-R3C ECD) [µM],"Kd (FGF-R4 ECD; crude NNK peptides, single concentration BLI (Table S3)) [µM]"
CC[C@H](C)[C@@H]1NC(=O)[C@H](Cc2c[nH]cn2)NC(=O)[C@H](CCCCN)NC(=O)[C@H](Cc2ccc(O)cc2)NC(=O)[C@@H](NC(=O)[C@H](CCSC)NC(C)=O)CSSC[C@@H](C(=O)NCC(=O)N[C@@H](CO)C(=O)NCC(=O)N[C@@H](CO)C(=O)N[C@@H](CCC(=O)O)C(=O)N[C@@H](CCC(=O)O)C(=O)NCC(=O)N[C@@H](CO)C(=O)NCC(=O)N[C@@H](CO)C(=O)N[C@@H](CC(=O)O)C(=O)N[C@@H](Cc2ccc(O)cc2)C(=O)N[C@@H](CCCCN)C(=O)N[C@@H](CC(=O)O)C(=O)N[C@@H](CC(=O)O)C(=O)N[C@@H](CC(=O)O)C(=O)N[C@@H](CC(=O)O)C(=O)N[C@@H](CCCCN)C(N)=O)NC(=O)[C@H](CC(C)C)NC(=O)[C@H](CCCCN)NC(=O)[C@H](CCC(N)=O)NC(=O)[C@H]([C@@H](C)CC)NC(=O)[C@H](CCCCN)NC(=O)[C@H](Cc2ccc(O)cc2)NC(=O)[C@H](Cc2c[nH]c3ccccc23)NC(=O)[C@H](CC(C)C)NC1=O (Ac-MCYKHILWYKIQKLCGSGSEEGSGSDYKDDDDK-NH2; disulfide 2-15),0.001,0.033,> 10,–
CSCC[C@H](NC(C)=O)C(=O)N[C@H]1CSSC[C@@H](C(=O)NCC(=O)N[C@@H](CO)C(=O)NCC(=O)N[C@@H](CO)C(=O)N[C@@H](CC(=O)O)C(=O)N[C@@H](Cc2ccc(O)cc2)C(=O)N[C@@H](CCCCN)C(=O)N[C@@H](CC(=O)O)C(=O)N[C@@H](CC(=O)O)C(=O)N[C@@H](CC(=O)O)C(=O)N[C@@H](CC(=O)O)C(=O)N[C@@H](CCCCN)C(N)=O)NC(=O)[C@H](Cc2c[nH]c3ccccc23)NC(=O)[C@H](CCC(N)=O)NC(=O)[C@H](CCCCN)NC(=O)[C@H](Cc2c[nH]c3ccccc23)NC(=O)[C@H](CC(C)C)NC(=O)[C@H](CC(C)C)NC(=O)[C@H](Cc2ccccc2)NC(=O)[C@H](CC(C)C)NC(=O)[C@H](CCCCN)NC(=O)[C@H](Cc2ccc(O)cc2)NC1=O (Ac-MCYKLFLLWKQWCGSGSDYKDDDDK-NH2; disulfide 2-13),–,> 10,> 10,> 10
CC[C@H](C)[C@@H]1NC(=O)[C@H](CC(N)=O)NC(=O)[C@H](CCCCN)NC(=O)[C@H](Cc2ccc(O)cc2)NC(=O)[C@@H](NC(=O)[C@H](CCSC)NC(C)=O)CSSC[C@@H](C(=O)NCC(=O)N[C@@H](CO)C(=O)NCC(=O)N[C@@H](CO)C(=O)N[C@@H](CC(=O)O)C(=O)N[C@@H](Cc2ccc(O)cc2)C(=O)N[C@@H](CCCCN)C(=O)N[C@@H](CC(=O)O)C(=O)N[C@@H](CC(=O)O)C(=O)N[C@@H](CC(=O)O)C(=O)N[C@@H](CC(=O)O)C(=O)N[C@@H](CCCCN)C(N)=O)NC(=O)[C@H](Cc2ccccc2)NC(=O)[C@H](C(C)C)NC(=O)[C@H](CC(C)C)NC(=O)[C@H](C(C)C)NC(=O)CNC(=O)[C@H](CC(N)=O)NC(=O)[C@H](CC(=O)O)NC1=O (Ac-MCYKNIDNGVLVFCGSGSDYKDDDDK-NH2; disulfide 2-14),0.014,> 10,> 10,–
CSCC[C@H](NC(C)=O)C(=O)N[C@H]1CSSC[C@@H](C(=O)NCC(=O)N[C@@H](CO)C(=O)NCC(=O)N[C@@H](CO)C(=O)N[C@@H](CC(=O)O)C(=O)N[C@@H](Cc2ccc(O)cc2)C(=O)N[C@@H](CCCCN)C(=O)N[C@@H](CC(=O)O)C(=O)N[C@@H](CC(=O)O)C(=O)N[C@@H](CC(=O)O)C(=O)N[C@@H](CC(=O)O)C(=O)N[C@@H](CCCCN)C(N)=O)NC(=O)[C@H](Cc2c[nH]c3ccccc23)NC(=O)[C@H](CC(C)C)NC(=O)[C@H](CCCNC(=N)N)NC(=O)[C@H](Cc2ccc(O)cc2)NC(=O)[C@H](CC(C)C)NC(=O)[C@H](Cc2c[nH]c3ccccc23)NC(=O)[C@H](CC(C)C)NC(=O)[C@H](CC(=O)O)NC(=O)[C@H](CCCCN)NC(=O)[C@H](CO)NC(=O)[C@H](Cc2ccc(O)cc2)NC(=O)[C@H](CCCCN)NC(=O)[C@H](Cc2ccc(O)cc2)NC1=O (Ac-MCYKYSKDLWLYRLWCGSGSDYKDDDDK-NH2; disulfide 2-16),0.022,0.502,> 10,–
CC[C@H](C)[C@@H]1NC(=O)[C@H](CC(N)=O)NC(=O)[C@H](Cc2ccc(O)cc2)NC(=O)[C@@H](NC(=O)[C@H](CCSC)NC(C)=O)CSSC[C@@H](C(=O)NCC(=O)N[C@@H](CO)C(=O)NCC(=O)N[C@@H](CO)C(=O)N[C@@H](CC(=O)O)C(=O)N[C@@H](Cc2ccc(O)cc2)C(=O)N[C@@H](CCCCN)C(=O)N[C@@H](CC(=O)O)C(=O)N[C@@H](CC(=O)O)C(=O)N[C@@H](CC(=O)O)C(=O)N[C@@H](CC(=O)O)C(=O)N[C@@H](CCCCN)C(N)=O)NC(=O)[C@H](CCC(=O)O)NC(=O)[C@H](CCCNC(=N)N)NC(=O)[C@H](CCCNC(=N)N)NC(=O)[C@H](C(C)C)NC(=O)[C@H](Cc2ccc(O)cc2)NC(=O)[C@H](CCCCN)NC(=O)[C@H](Cc2ccc(O)cc2)NC(=O)[C@H](Cc2c[nH]c3ccccc23)NC(=O)[C@H](Cc2ccc(O)cc2)NC1=O (Ac-MCYNIYWYKYVRRECGSGSDYKDDDDK-NH2; disulfide 2-15),0.001,0.387,> 10,–
CSCC[C@H](NC(C)=O)C(=O)N[C@H]1CSSC[C@@H](C(=O)NCC(=O)N[C@@H](CO)C(=O)NCC(=O)N[C@@H](CO)C(=O)N[C@@H](CC(=O)O)C(=O)N[C@@H](Cc2ccc(O)cc2)C(=O)N[C@@H](CCCCN)C(=O)N[C@@H](CC(=O)O)C(=O)N[C@@H](CC(=O)O)C(=O)N[C@@H](CC(=O)O)C(=O)N[C@@H](CC(=O)O)C(=O)N[C@@H](CCCCN)C(N)=O)NC(=O)[C@@H]2CCCN2C(=O)[C@H](CCC(N)=O)NC(=O)[C@H](Cc2c[nH]c3ccccc23)NC(=O)[C@H](CCC(=O)O)NC(=O)[C@H](CCC(=O)O)NC(=O)[C@H]([C@@H](C)O)NC(=O)[C@H](Cc2c[nH]c3ccccc23)NC(=O)[C@H](Cc2ccccc2)NC(=O)[C@H](CCCNC(=N)N)NC(=O)[C@H]([C@@H](C)O)NC(=O)[C@H](Cc2ccc(O)cc2)NC1=O (Ac-MCYTRFWTEEWQPCGSGSDYKDDDDK-NH2; disulfide 2-14),> 10,> 10,> 10,–
CSCC[C@H](NC(C)=O)C(=O)N[C@H]1CSSC[C@@H](C(=O)NCC(=O)N[C@@H](CO)C(=O)NCC(=O)N[C@@H](CO)C(=O)N[C@@H](CC(=O)O)C(=O)N[C@@H](Cc2ccc(O)cc2)C(=O)N[C@@H](CCCCN)C(=O)N[C@@H](CC(=O)O)C(=O)N[C@@H](CC(=O)O)C(=O)N[C@@H](CC(=O)O)C(=O)N[C@@H](CC(=O)O)C(=O)N[C@@H](CCCCN)C(N)=O)NC(=O)[C@H](CCC(N)=O)NC(=O)[C@H](Cc2c[nH]cn2)NC(=O)[C@H](Cc2c[nH]c3ccccc23)NC(=O)[C@H](CC(C)C)NC(=O)[C@H](C)NC(=O)[C@H](CCC(=O)O)NC(=O)[C@H](Cc2ccc(O)cc2)NC(=O)[C@@H]2CCCN2C(=O)[C@H](Cc2c[nH]cn2)NC(=O)[C@H](CCCNC(=N)N)NC(=O)[C@H]([C@@H](C)O)NC(=O)[C@H](Cc2ccc(O)cc2)NC1=O (Ac-MCYTRHPYEALWHQCGSGSDYKDDDDK-NH2; disulfide 2-15),> 10,> 10,> 10,–
